Legend:
[1] = target: T1, Metabotropic glutamate receptor 1 (Homo sapiens, UniProt Q13255); assay: Positive allosteric modulation of human mGluR1 by calcium mobilization assay; format: functional
Target sequence in this assay (Q13255 whole entry): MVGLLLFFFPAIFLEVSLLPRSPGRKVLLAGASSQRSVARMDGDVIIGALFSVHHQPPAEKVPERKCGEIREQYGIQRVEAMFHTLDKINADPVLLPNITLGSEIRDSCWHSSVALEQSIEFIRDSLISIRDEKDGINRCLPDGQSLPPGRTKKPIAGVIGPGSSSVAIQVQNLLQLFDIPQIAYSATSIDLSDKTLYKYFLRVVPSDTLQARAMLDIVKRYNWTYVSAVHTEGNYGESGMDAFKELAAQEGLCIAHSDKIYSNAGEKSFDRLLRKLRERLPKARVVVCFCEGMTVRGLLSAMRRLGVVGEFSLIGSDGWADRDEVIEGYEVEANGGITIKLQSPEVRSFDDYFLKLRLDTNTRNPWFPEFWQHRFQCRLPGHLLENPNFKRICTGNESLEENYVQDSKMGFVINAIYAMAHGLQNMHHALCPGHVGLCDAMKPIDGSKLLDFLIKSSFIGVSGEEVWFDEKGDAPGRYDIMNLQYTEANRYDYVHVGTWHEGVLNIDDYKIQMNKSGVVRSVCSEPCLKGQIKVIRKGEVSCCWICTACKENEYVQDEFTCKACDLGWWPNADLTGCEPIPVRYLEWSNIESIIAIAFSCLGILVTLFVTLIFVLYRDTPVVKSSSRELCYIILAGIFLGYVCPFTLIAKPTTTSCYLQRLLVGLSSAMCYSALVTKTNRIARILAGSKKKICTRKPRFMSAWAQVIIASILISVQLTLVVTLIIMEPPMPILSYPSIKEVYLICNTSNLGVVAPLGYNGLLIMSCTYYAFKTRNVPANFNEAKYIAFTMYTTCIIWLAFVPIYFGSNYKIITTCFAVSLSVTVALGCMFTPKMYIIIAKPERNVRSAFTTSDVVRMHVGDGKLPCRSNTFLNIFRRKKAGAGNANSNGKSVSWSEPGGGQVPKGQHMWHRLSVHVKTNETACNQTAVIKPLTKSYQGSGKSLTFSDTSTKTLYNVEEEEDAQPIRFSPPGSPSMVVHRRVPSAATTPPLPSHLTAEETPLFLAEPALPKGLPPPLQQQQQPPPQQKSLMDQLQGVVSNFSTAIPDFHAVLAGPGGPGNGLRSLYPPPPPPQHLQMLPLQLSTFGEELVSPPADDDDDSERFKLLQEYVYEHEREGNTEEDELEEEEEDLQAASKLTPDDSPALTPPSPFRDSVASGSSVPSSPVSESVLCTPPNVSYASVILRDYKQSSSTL

[2] = target: T1, Metabotropic glutamate receptor 1; assay: Positive allosteric modulation of human mGluR1 by calcium mobilization assay relative to control; format: functional
Target sequence in this assay (Q13255 19-1194 limits assumed): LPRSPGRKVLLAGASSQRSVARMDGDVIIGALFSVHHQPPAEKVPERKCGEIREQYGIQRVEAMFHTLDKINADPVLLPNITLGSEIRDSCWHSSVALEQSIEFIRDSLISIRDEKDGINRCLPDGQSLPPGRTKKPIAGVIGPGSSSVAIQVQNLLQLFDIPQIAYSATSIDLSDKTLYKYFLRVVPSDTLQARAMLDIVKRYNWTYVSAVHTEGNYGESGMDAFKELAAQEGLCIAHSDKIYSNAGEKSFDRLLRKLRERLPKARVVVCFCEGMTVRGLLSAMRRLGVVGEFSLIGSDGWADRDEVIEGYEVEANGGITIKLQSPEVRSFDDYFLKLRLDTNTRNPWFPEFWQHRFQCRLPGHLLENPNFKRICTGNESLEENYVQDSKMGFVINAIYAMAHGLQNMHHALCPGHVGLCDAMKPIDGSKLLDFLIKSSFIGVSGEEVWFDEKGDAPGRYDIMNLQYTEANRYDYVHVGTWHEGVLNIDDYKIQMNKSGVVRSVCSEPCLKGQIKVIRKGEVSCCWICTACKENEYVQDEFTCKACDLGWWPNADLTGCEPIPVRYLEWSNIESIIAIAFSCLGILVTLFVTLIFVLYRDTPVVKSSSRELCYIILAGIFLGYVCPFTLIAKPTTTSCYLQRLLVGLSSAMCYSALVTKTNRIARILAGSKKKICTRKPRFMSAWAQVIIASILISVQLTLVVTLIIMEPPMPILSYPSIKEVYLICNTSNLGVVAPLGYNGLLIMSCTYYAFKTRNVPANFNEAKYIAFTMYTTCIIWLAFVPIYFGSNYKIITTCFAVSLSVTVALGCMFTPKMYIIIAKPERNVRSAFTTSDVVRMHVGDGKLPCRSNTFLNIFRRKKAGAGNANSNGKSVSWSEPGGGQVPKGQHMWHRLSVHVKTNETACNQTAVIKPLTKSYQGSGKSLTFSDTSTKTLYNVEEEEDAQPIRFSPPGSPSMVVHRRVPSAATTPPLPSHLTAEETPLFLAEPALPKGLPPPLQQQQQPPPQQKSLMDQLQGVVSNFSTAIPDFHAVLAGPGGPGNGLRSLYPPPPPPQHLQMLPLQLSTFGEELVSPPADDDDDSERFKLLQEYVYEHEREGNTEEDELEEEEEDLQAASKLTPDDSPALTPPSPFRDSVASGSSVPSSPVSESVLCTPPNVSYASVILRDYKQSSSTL

[3] = target: T2, Metabotropic glutamate receptor 4 (Homo sapiens, UniProt Q14833); assay: Positive allosteric modulation of human mGluR4 by calcium mobilization assay; format: functional
T2 sequence (Q14833 whole entry): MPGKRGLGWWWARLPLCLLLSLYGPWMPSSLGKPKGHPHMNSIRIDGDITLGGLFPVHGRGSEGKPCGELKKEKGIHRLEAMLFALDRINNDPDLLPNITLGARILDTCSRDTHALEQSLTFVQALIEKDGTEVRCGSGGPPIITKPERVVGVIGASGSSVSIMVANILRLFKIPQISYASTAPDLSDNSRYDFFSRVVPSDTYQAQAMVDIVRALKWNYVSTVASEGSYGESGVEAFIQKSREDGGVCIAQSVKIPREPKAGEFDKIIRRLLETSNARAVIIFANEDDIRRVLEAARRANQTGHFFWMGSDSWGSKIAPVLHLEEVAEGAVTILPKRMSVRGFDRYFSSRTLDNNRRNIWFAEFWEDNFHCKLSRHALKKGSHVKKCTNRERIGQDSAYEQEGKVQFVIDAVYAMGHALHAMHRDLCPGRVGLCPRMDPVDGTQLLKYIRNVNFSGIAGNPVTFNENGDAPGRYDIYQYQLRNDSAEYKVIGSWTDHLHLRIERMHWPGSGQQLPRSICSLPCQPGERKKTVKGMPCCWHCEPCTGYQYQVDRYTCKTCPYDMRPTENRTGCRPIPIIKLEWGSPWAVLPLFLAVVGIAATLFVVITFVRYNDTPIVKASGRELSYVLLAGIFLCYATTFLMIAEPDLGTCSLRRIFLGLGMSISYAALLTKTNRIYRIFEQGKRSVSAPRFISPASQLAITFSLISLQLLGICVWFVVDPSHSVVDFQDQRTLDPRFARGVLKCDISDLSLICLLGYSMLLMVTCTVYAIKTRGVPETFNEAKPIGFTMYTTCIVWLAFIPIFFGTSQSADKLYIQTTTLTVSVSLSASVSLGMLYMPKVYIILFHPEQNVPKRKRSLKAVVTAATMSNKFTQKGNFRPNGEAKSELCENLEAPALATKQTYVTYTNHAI

[4] = target: T2, Metabotropic glutamate receptor 4; assay: Positive allosteric modulation of human mGluR4 by calcium mobilization assay relative to PHCCC; format: functional
Homo sapiens = species on record: Homo sapiens; assay: Selectivity ratio of EC50 for human mGluR4 to EC50 for human mGluR1
Plasma [5] = assay: Fraction unbound in human plasma; format: ADME, cell-free
Plasma [6] = assay: Fraction unbound in rat plasma; format: ADME, cell-free
Brain = assay: Fraction unbound in rat brain; format: ADME, tissue-based
Rattus norvegicus = assay: Ratio of drug level in plasma to brain in rat at 0.2 mg/kg after 15 mins by cassette study; details: in vivo, 0.25 h

Compound | EC50 [1] | EC50 ([1]; read-out: EC50) | %max [2] | EC50 [3] | %max [4] | Ratio EC50 (Homo sapiens) | Fu (Plasma [5]) | Fu (Plasma [6]) | Fu (Brain) | Ratio (Rattus norvegicus)
Cc1ccoc1C(=O)Nc1ccc(N2C(=O)c3cccc(Cl)c3C2=O)c2ccccc12 | 22.4 nM | 23 nM | 92% | 513 nM | 102% | 22.8 | – | – | – | –
Cc1ccoc1C(=O)Nc1ccc(N2C(=O)c3ccccc3C2=O)cc1 | 47.9 nM | 48 nM | 82% | > 10000 nM | – | – | – | – | – | –
COc1cc(NC(=O)c2occc2C)ccc1N1C(=O)c2cccc(Cl)c2C1=O | 18.2 nM | 18 nM | 93% | 647 nM | 103% | 36.1 | – | – | – | –
Cc1ccoc1C(=O)Nc1ccc(N2C(=O)c3ccccc3C2=O)c2ccccc12 | 20.4 nM | 20 nM | 99% | 353 nM | 54% | 17.4 | – | – | – | –
Cc1ccoc1C(=O)Nc1ccc(N2C(=O)c3cccc(Cl)c3C2=O)nc1 | 34.7 nM | 35 nM | 91% | 1110 nM | 44% | 31.9 | – | – | – | –
Cc1cc(NC(=O)c2occc2C)ccc1N1C(=O)c2cccc(Cl)c2C1=O | 49 nM | 49 nM | 117% | 1010 nM | 127% | 20.5 | – | – | – | –
Cc1ccoc1C(=O)Nc1ccc(N2C(=O)c3ccccc3C2=O)cc1C(F)(F)F | > 10000 nM | > 10000 nM | – | > 10000 nM | – | – | – | – | – | –
Cc1cc(NC(=O)c2occc2C)ccc1N1C(=O)c2cccc(F)c2C1=O | 49 nM | 49 nM | 95% | 1100 nM | 86% | 22.4 | – | – | – | –
Cc1ccoc1C(=O)Nc1ccc(N2C(=O)c3ccccc3C2=O)cn1 | > 10000 nM | > 10000 nM | – | > 10000 nM | – | – | – | – | – | –
Cc1ccoc1C(=O)Nc1ccc(N2C(=O)c3cccc(F)c3C2=O)c2ccccc12 | 19.5 nM | 20 nM | 90% | 809 nM | 83% | 41.1 | – | – | – | –
Cc1ccoc1C(=O)Nc1cnc(N2C(=O)c3ccccc3C2=O)nc1 | 4680 nM | 4610 nM | 89% | 4670 nM | 23% | 1.01 | – | – | – | –
Cc1ccoc1C(=O)Nc1cnc(N2C(=O)c3cccc(Cl)c3C2=O)nc1 | 209 nM | 208 nM | 84% | 2530 nM | 45% | 12.2 | – | – | – | –
Cc1ccoc1C(=O)Nc1ccc(N2C(=O)c3cccc(C)c3C2=O)nc1 | 95.5 nM | 95 nM | 105% | 5000 nM | 100% | 52.7 | – | – | – | –
Cc1ccoc1C(=O)Nc1ccc(N2C(=O)c3cccc(C)c3C2=O)c(F)c1 | 26.3 nM | 26 nM | 107% | 287 nM | 102% | 11 | – | – | – | –
Cc1ccoc1C(=O)Nc1cnc(N2C(=O)c3cccc(F)c3C2=O)nc1 | 5370 nM | 5330 nM | 99% | > 10000 nM | 24% | – | – | – | – | –
Cc1cc(N2C(=O)c3ccccc3C2=O)ccc1NC(=O)c1occc1C | 15.1 nM | 15 nM | 90% | 609 nM | 52% | 40.6 | – | – | – | –
Cc1ccoc1C(=O)Nc1ccc(N2C(=O)c3ccccc3C2=O)c(F)c1 | 22.4 nM | 22 nM | 101% | 265 nM | 65% | 11.9 | – | – | – | –
Cc1ccoc1C(=O)Nc1ccc(N2C(=O)c3cccc(Cl)c3C2=O)c(C(F)(F)F)c1 | 105 nM | 106 nM | 105% | 2470 nM | 120% | 23.3 | – | – | – | –
Cc1ccoc1C(=O)Nc1ncc(N2C(=O)c3ccccc3C2=O)cn1 | > 10000 nM | > 10000 nM | – | > 10000 nM | – | – | – | – | – | –
Cc1ccoc1C(=O)Nc1ccc(N2C(=O)c3cccc(C)c3C2=O)c(C(F)(F)F)c1 | 537 nM | 530 nM | 117% | 5760 nM | 109% | 10.8 | – | – | – | –
COc1cc(NC(=O)c2occc2C)ccc1N1C(=O)c2ccccc2C1=O | 46.8 nM | 46 nM | 96% | 1180 nM | 50% | 25.6 | – | – | – | –
Cc1ccoc1C(=O)Nc1ccc(N2C(=O)c3cccc(F)c3C2=O)c(C(F)(F)F)c1 | 155 nM | 155 nM | 110% | 2870 nM | 80% | 18.5 | – | – | – | –
COc1cc(NC(=O)c2occc2C)ccc1N1C(=O)c2cccc(F)c2C1=O | 145 nM | 144 nM | 103% | 1930 nM | 73% | 13.4 | – | – | – | –
Cc1ccoc1C(=O)Nc1ccc(N2C(=O)c3cccc(F)c3C2=O)c(F)c1 | 34.7 nM | 35 nM | 104% | 674 nM | 78% | 19.3 | – | – | – | –
Cc1ccoc1C(=O)Nc1ccc(N2C(=O)c3ccccc3C2=O)cc1Cl | 28.8 nM | 29 nM | 68% | > 10000 nM | – | – | < 1% | < 1% | < 1% | 0.12

Continued by falling EC50 [1], values first:

EC50 [1] | EC50 ([1]; read-out: EC50) | %max [2] | EC50 [3] | %max [4] | Ratio EC50 (Homo sapiens) | Fu (Plasma [5]) | Fu (Plasma [6]) | Fu (Brain) | Ratio (Rattus norvegicus) | Compound
759 nM | 751 nM | 111% | 4470 nM | 104% | 5.95 | – | – | – | – | Cc1ccoc1C(=O)Nc1cnc(N2C(=O)c3cccc(C)c3C2=O)nc1
389 nM | 387 nM | 80% | > 10000 nM | – | – | – | – | – | – | Cc1ccoc1C(=O)Nc1ccc(N2C(=O)c3ccccc3C2=O)nc1
331 nM | 330 nM | 80% | > 10000 nM | – | – | – | – | – | – | COc1cc(N2C(=O)c3ccccc3C2=O)ccc1NC(=O)c1occc1C
200 nM | 198 nM | 93% | 3550 nM | 19% | 17.9 | – | – | – | – | Cc1ccoc1C(=O)Nc1ccc(N2C(=O)c3cccc(F)c3C2=O)nc1
123 nM | 123 nM | 108% | 6660 nM | 86% | 54.1 | – | – | – | – | Cc1ccoc1C(=O)Nc1ccc(N2C(=O)c3ccccc3C2=O)c(C(F)(F)F)c1
89.1 nM | 89 nM | 105% | 885 nM | 75% | 9.9 | – | – | – | – | Cc1cc(NC(=O)c2occc2C)ccc1N1C(=O)c2ccccc2C1=O
49 nM | 49 nM | 94% | 882 nM | 107% | 18 | – | – | – | – | COc1cc(NC(=O)c2occc2C)ccc1N1C(=O)c2cccc(C)c2C1=O
43.7 nM | 44 nM | 96% | 382 nM | 34% | 8.6 | – | – | – | – | Cc1ccoc1C(=O)Nc1ccc(N2C(=O)c3cccc(F)c3C2=O)cc1
28.8 nM | 29 nM | 101% | 483 nM | 35% | 16.7 | – | – | – | – | Cc1ccoc1C(=O)Nc1ccc(N2C(=O)c3cccc(Cl)c3C2=O)cc1
27.5 nM | 28 nM | 100% | 264 nM | 93% | 9.5 | – | – | – | – | Cc1ccoc1C(=O)Nc1ccc(N2C(=O)c3cccc(Cl)c3C2=O)c(F)c1
21.4 nM | 21 nM | 100% | 422 nM | 122% | 19.8 | – | – | – | – | Cc1cc(NC(=O)c2occc2C)ccc1N1C(=O)c2cccc(C)c2C1=O
16.2 nM | 16 nM | 108% | 350 nM | 62% | 21.7 | – | – | – | – | Cc1ccoc1C(=O)Nc1ccc(N2C(=O)c3cccc(C)c3C2=O)cc1
15.8 nM | 16 nM | 88% | 429 nM | 103% | 27.3 | – | – | – | – | Cc1ccoc1C(=O)Nc1ccc(N2C(=O)c3cccc(C)c3C2=O)c2ccccc12
12.6 nM | 13 nM | 84% | > 10000 nM | – | – | < 1% | < 1% | < 1% | 1.57 | Cc1ccoc1C(=O)Nc1ccc(N2C(=O)c3ccccc3C2=O)cc1F

From ChEMBL document CHEMBL3632577, “Lead optimization of the VU0486321 series of mGlu1 PAMs. Part 1: SAR of modifications to the central aryl core” (Bioorg Med Chem Lett, 2015)
